Test results published in patent publication EP0908457B1, “3-(1,2-benzisothiazol- and isoxazol-5-Y1)-2,4(1H,3H)-pyrimidinedione or thione and 3-(1,2-benzisothiazol- and isoxazol-5-y1)-4(3H)-pyrimidinone or thione herbicidal agents” (BASF AKTIENGESELLSCHAFT, priority 1997, dated 1999).

Legend:
[1] = test system: Echinochloa oryzoides (Ard.) Fritsch.; test: Preemergence weed control under flooded paddy conditions, ECHORC (Watergrass (Calif.)); assay type: in vivo; conditions: preemergence, flooded paddy, rated 3-4 weeks after treatment
Cyperus iria = test: Preemergence weed control under flooded paddy conditions, CYPIR (Rice Flatsedge); assay type: in vivo; conditions: preemergence, flooded paddy, rated 3-4 weeks after treatment
[2] = test system: Cyperus serotinus, Rottb.; test: Preemergence weed control under flooded paddy conditions, CYPSE (Flatsedge); assay type: in vivo; conditions: preemergence, rated 3-4 weeks after treatment
[3] = test system: Monochoria vaginalis, Presl.; test: Preemergence weed control under flooded paddy conditions, MOOVA (Monochoria); assay type: in vivo; conditions: preemergence, flooded paddy, rated 3-4 weeks after treatment
Sagittaria pygmaea, L. = test: Preemergence weed control under flooded paddy conditions, SAGPY (Arrowhead (Pygmaea)); assay type: in vivo; conditions: preemergence, flooded paddy, rated 3-4 weeks after treatment
[4] = test system: Oryza sativa, (L.) Tebonnet; test: Rice tolerance to post-transplant applications under flooded paddy conditions (Example 187), ORYSAT (Rice, Tebonnet); conditions: rated 3-4 weeks after treatment
Note: meaning of each grade not given here.

Row | SMILES | herbicidal effect rating, ECHORC ([1]; Rate 0.0620 kg/ha) | herbicidal effect rating, ECHORC ([1]; Rate 0.1250 kg/ha) | herbicidal effect rating, ECHORC ([1]; Rate 0.2500 kg/ha) | herbicidal effect rating, ECHORC ([1]; Rate 0.5000 kg/ha) | herbicidal effect rating, CYPIR (Cyperus iria; Rate 0.0620 kg/ha) | herbicidal effect rating, CYPIR (Cyperus iria; Rate 0.1250 kg/ha) | herbicidal effect rating, CYPIR (Cyperus iria; Rate 0.2500 kg/ha) | herbicidal effect rating, CYPIR (Cyperus iria; Rate 0.5000 kg/ha) | herbicidal effect rating, CYPSE ([2]; Rate 0.1250 kg/ha) | herbicidal effect rating, CYPSE ([2]; Rate 0.5000 kg/ha) | herbicidal effect rating, MOOVA ([3]; Rate 0.0620 kg/ha) | herbicidal effect rating, MOOVA ([3]; Rate 0.1250 kg/ha) | herbicidal effect rating, MOOVA ([3]; Rate 0.2500 kg/ha) | herbicidal effect rating, MOOVA ([3]; Rate 0.5000 kg/ha) | herbicidal effect rating, SAGPY (Sagittaria pygmaea, L.; Rate 0.0620 kg/ha) | herbicidal effect rating, SAGPY (Sagittaria pygmaea, L.; Rate 0.1250 kg/ha) | herbicidal effect rating, SAGPY (Sagittaria pygmaea, L.; Rate 0.2500 kg/ha) | herbicidal effect rating, SAGPY (Sagittaria pygmaea, L.; Rate 0.5000 kg/ha) | herbicidal effect rating ORYSAT ([4]; Rate 0.0620 kg/ha) | herbicidal effect rating ORYSAT ([4]; Rate 0.1250 kg/ha) | also measured
1 | Cc1ccc(OCC(=O)C(C)(C)C)c(-c2nsc3ccc(-n4c(=O)cc(C(F)(F)F)n(C)c4=O)cc23)c1 [Example 540, 2,4(1H,3H)-Pyrimidinedione, 3-{3-[6-(3,3-dimethyl-2-oxobutoxy)-m-tolyl]-1,2-benzisothiazol-5-yl}-1-methyl-6-(trifluoromethyl)-] | 3.4 | 4.7 | 9.0 | 9.0 | 8.0 | 9.0 | 9.0 | 9.0 | 0.0 | 3.0 | 9.0 | 9.0 | 9.0 | 9.0 | 0.0 | 0.0 | 0.0 | 0.0 | 0.0 | 0.0 | herbicidal effect rating, ECHORC ([1]; Rate 0.0320 kg/ha): 2.3; herbicidal effect rating, CYPIR (Cyperus iria; Rate 0.0320 kg/ha): 6.0; herbicidal effect rating, CYPSE ([2]; Rate 0.0320 kg/ha): 0.0; herbicidal effect rating, CYPSE ([2]; Rate 0.0620 kg/ha): 0.0; herbicidal effect rating, CYPSE ([2]; Rate 0.2500 kg/ha): 0.0; herbicidal effect rating, MOOVA ([3]; Rate 0.0320 kg/ha): 8.0; herbicidal effect rating, SAGPY (Sagittaria pygmaea, L.; Rate 0.0320 kg/ha): 0.0; herbicidal effect rating ORYSAT ([4]; Rate 0.0320 kg/ha): 0.0; herbicidal effect rating ORYSAT ([4]; Rate 0.2500 kg/ha): 1.0; herbicidal effect rating ORYSAT ([4]; Rate 0.5000 kg/ha): 3.0
2 | CCOC(=O)c1ccc(NC(=O)C(C)Oc2ccc(C)cc2-c2nsc3ccc(-n4c(=O)cc(C(F)(F)F)n(C)c4=O)cc23)cc1 (stereo not shown) [Example 541, Benzoic acid, p-{2-{{2-{5-[3,6-dihydro-3-methyl-2,6-dioxo-4-(trifluoromethyl)-1(2H)-pyrimidinyl]-1,2-benzisothiazol-3-yl}-p-tolyl}oxy}propionamido}-, ethyl ester] | 0.0 | 0.0 | 4.0 | 6.0 | 3.0 | 4.0 | 6.0 | 9.0 | 0.0 | 0.0 | 9.0 | 9.0 | 9.0 | 9.0 | 0.0 | 0.0 | 0.0 | 0.0 | 0.0 | 0.0 | herbicidal effect rating, CYPSE ([2]; Rate 0.0620 kg/ha): 0.0; herbicidal effect rating, CYPSE ([2]; Rate 0.2500 kg/ha): 0.0; herbicidal effect rating ORYSAT ([4]; Rate 0.2500 kg/ha): 0.0; herbicidal effect rating ORYSAT ([4]; Rate 0.5000 kg/ha): 2.0
3 | Cc1ccc(OC(C)C(=O)c2ccc(C)c(C)c2)c(-c2nsc3ccc(-n4c(=O)cc(C(F)(F)F)n(C)c4=O)cc23)c1 (stereo not shown) [Example 542, 2,4(1H,3H)-Pyrimidinedione, 3-{3-{6-[1-(3,4-dimethylbenzoyl)ethoxy]-m-tolyl}-1,2-benzisothiazol-5-yl}-1-methyl-6-(trifluoromethyl)-] | 2.7 | 4.3 | 8.0 | 9.0 | 0.0 | 2.0 | 4.0 | 9.0 | 0.0 | 0.0 | 9.0 | 9.0 | 9.0 | 9.0 | 0.0 | 0.0 | 0.0 | 9.0 | 0.0 | 0.0 | herbicidal effect rating, ECHORC ([1]; Rate 0.0320 kg/ha): 1.7; herbicidal effect rating, CYPIR (Cyperus iria; Rate 0.0320 kg/ha): 0.0; herbicidal effect rating, CYPSE ([2]; Rate 0.0320 kg/ha): 0.0; herbicidal effect rating, CYPSE ([2]; Rate 0.0620 kg/ha): 0.0; herbicidal effect rating, MOOVA ([3]; Rate 0.0320 kg/ha): 7.0; herbicidal effect rating, SAGPY (Sagittaria pygmaea, L.; Rate 0.0320 kg/ha): 0.0; herbicidal effect rating ORYSAT ([4]; Rate 0.0320 kg/ha): 0.0; herbicidal effect rating ORYSAT ([4]; Rate 0.2500 kg/ha): 0.0; herbicidal effect rating ORYSAT ([4]; Rate 0.5000 kg/ha): 2.0
4 | Cc1ccc(OCC(=O)c2ccc(OC(F)F)cc2)c(-c2nsc3ccc(-n4c(=O)cc(C(F)(F)F)n(C)c4=O)cc23)c1 [Example 543, 2,4(1H,3H)-Pyrimidinedione, 3-{3-{6-{[p-(difluoromethoxy)phenacyl]oxy}-m-tolyl}-1,2-benzisothiazol-5-yl}-1-methyl-6-(trifluoromethyl)-] | 2.9 | 4.0 | 7.0 | 9.0 | 6.0 | 7.0 | 8.0 | 3.0 | 0.0 | 0.0 | 9.0 | 9.0 | 9.0 | 9.0 | 0.0 | 0.0 | 0.0 | 0.0 | 0.0 | 1.0 | herbicidal effect rating, ECHORC ([1]; Rate 0.0320 kg/ha): 2.1; herbicidal effect rating, CYPIR (Cyperus iria; Rate 0.0320 kg/ha): 2.0; herbicidal effect rating, CYPSE ([2]; Rate 0.0320 kg/ha): 0.0; herbicidal effect rating, CYPSE ([2]; Rate 0.0620 kg/ha): 0.0; herbicidal effect rating, CYPSE ([2]; Rate 0.2500 kg/ha): 0.0; herbicidal effect rating, MOOVA ([3]; Rate 0.0320 kg/ha): 9.0; herbicidal effect rating, SAGPY (Sagittaria pygmaea, L.; Rate 0.0320 kg/ha): 0.0; herbicidal effect rating ORYSAT ([4]; Rate 0.0320 kg/ha): 0.0; herbicidal effect rating ORYSAT ([4]; Rate 0.2500 kg/ha): 2.0; herbicidal effect rating ORYSAT ([4]; Rate 0.5000 kg/ha): 2.0
5 | Cc1ccc(OC(C)(C)C(=O)OCCCl)c(-c2nsc3ccc(-n4c(=O)cc(C(F)(F)F)n(C)c4=O)cc23)c1 [Example 544, Propionic acid, 2-{{2-{5-[3,6-dihydro-3-methyl-2,6-dioxo-4-(trifluoromethyl)-1(2H)-pyrimidinyl]-1,2-benzisothiazol-3-yl}-p-tolyl}oxy}-2-methyl-, 2-chloroethyl ester] | 5.6 | 6.4 | 9.0 | 9.0 | 9.0 | 9.0 | 9.0 | 9.0 | 7.0 | 4.0 | 9.0 | 9.0 | 9.0 | 9.0 | 4.0 | 8.0 | 9.0 | 9.0 | 9.0 | 9.0 | herbicidal effect rating, ECHORC ([1]; Rate 0.0320 kg/ha): 5.4; herbicidal effect rating, CYPIR (Cyperus iria; Rate 0.0320 kg/ha): 9.0; herbicidal effect rating, CYPSE ([2]; Rate 0.0320 kg/ha): 9.0; herbicidal effect rating, CYPSE ([2]; Rate 0.2500 kg/ha): 9.0; herbicidal effect rating, MOOVA ([3]; Rate 0.0320 kg/ha): 9.0; herbicidal effect rating, SAGPY (Sagittaria pygmaea, L.; Rate 0.0320 kg/ha): 7.0; herbicidal effect rating ORYSAT ([4]; Rate 0.0320 kg/ha): 4.0; herbicidal effect rating ORYSAT ([4]; Rate 0.2500 kg/ha): 9.0; herbicidal effect rating ORYSAT ([4]; Rate 0.5000 kg/ha): 8.0
6 | Cc1ccc(OC(C)(C)C(=O)OCC(F)(F)F)c(-c2nsc3ccc(-n4c(=O)cc(C(F)(F)F)n(C)c4=O)cc23)c1 [Example 545, Propionic acid, 2-{{2-{5-[3,6-dihydro-3-methyl-2,6-dioxo-4-(trifluoromethyl)-1(2H)-pyrimidinyl]-1,2-benzisothiazol-3-yl}-p-tolyl}oxy}-2-methyl-, 2,2,2-trifluoroethyl ester] | 6.6 | 7.0 | 9.0 | 9.0 | 5.0 | 6.0 | 7.0 | 9.0 | 9.0 | 6.0 | 7.0 | 9.0 | 9.0 | 9.0 | 0.0 | 4.0 | 7.0 | 9.0 | 2.0 | 4.0 | herbicidal effect rating, ECHORC ([1]; Rate 0.0320 kg/ha): 5.6; herbicidal effect rating, CYPIR (Cyperus iria; Rate 0.0320 kg/ha): 4.0; herbicidal effect rating, CYPSE ([2]; Rate 0.0320 kg/ha): 0.0; herbicidal effect rating, CYPSE ([2]; Rate 0.0620 kg/ha): 0.0; herbicidal effect rating, CYPSE ([2]; Rate 0.2500 kg/ha): 9.0; herbicidal effect rating, MOOVA ([3]; Rate 0.0320 kg/ha): 6.0; herbicidal effect rating, SAGPY (Sagittaria pygmaea, L.; Rate 0.0320 kg/ha): 0.0; herbicidal effect rating ORYSAT ([4]; Rate 0.0320 kg/ha): 2.0; herbicidal effect rating ORYSAT ([4]; Rate 0.2500 kg/ha): 9.0; herbicidal effect rating ORYSAT ([4]; Rate 0.5000 kg/ha): 9.0
